Experimental data published in US10040804B2, “Compounds targeting proteins, compositions, methods, and uses thereof” (BioTheryX, Inc., priority 2016, dated 2018).

Experiments:
[1] = tested on: IL-6; test: IL-6 expression in LPS stimulated PBMCs (Meso Scale); type: cell-based, human; settings: Homo sapiens, PBMC, LPS-stimulated PBMCs; for inhibition at 1 µM: compound concentration 1 μM; for inhibition at 0.1 µM: compound concentration 0.1 μM
In short: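 Thawed human PBMCs at 200,000 cells/well in RPMI-1640/10% FBS were pretreated with compound or DMSO for 1 h, then stimulated with 100 ng/mL LPS for 18–24 h. Supernatant IL-6 was measured by Meso Scale assay and expressed as % of LPS-induced activity.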

[2] = tested on: TNF-α; test: TNF-α expression in LPS stimulated PBMCs (Meso Scale); type: cell-based, human; settings: Homo sapiens, PBMC; for inhibition at 1 µM: compound concentration 1 μM; for inhibition at 0.1 µM: compound concentration 0.1 μM
In short: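 Thawed primary human PBMCs, 200,000 cells/well in RPMI-1640/10% FBS, pretreated with compound 1 h, then stimulated with 100 ng/mL LPS for 18-24 h. Supernatant TNF-α measured by Meso Scale assay; activity expressed as percentage of LPS-induced level, DMSO as negative control.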

[3] = tested on: Molm-13 cells; test: Molm-13 cell viability (CellTiter-Glo); type: cell-based; settings: Homo sapiens, MOLM-13, read-out: % Inhibition (MOLM-13 Cell Viability); for cytotoxicity at 10 µM: compound concentration 10 μM
In short: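 Molm-13 (RPMI-1640, 10% FBS) and H1048 (DMEM:F12, 5% FBS with supplements) plated at 20,000 cells/well, treated with compound or 0.1% DMSO for 3 days at 37° C., 5% CO2. Viability read by CellTiter-Glo luminescence after 10 min.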

[4] = target: T1, GSPT1 (Homo sapiens, UniProt P15170); test: GSPT1 protein levels by Western Blot analysis; type: cell-based; settings: DMSO = 100.00; for remaining activity at 0.1 µM: 100 nM compound concentration; for remaining activity at 1 µM: 1 μM compound concentration
T1 construct: Whole cell extracts were prepared using RIPA buffer according to manufacturer's protocol (Pierce); endogenous in cells
T1 sequence (P15170 whole entry): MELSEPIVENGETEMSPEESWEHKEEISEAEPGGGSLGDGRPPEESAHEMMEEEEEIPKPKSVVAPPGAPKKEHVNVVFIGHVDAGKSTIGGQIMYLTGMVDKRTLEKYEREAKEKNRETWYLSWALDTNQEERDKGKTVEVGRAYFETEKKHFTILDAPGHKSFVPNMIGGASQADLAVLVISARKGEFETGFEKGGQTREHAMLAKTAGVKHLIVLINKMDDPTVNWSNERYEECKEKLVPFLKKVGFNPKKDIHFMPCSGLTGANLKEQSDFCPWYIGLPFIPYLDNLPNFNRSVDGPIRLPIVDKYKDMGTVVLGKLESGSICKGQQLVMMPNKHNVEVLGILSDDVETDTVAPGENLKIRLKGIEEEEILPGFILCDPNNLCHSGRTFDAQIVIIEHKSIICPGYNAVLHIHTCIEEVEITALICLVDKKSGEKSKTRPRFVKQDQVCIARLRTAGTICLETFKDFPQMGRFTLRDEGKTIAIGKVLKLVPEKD
T1 sequence (Q96SW2 whole entry, further chain): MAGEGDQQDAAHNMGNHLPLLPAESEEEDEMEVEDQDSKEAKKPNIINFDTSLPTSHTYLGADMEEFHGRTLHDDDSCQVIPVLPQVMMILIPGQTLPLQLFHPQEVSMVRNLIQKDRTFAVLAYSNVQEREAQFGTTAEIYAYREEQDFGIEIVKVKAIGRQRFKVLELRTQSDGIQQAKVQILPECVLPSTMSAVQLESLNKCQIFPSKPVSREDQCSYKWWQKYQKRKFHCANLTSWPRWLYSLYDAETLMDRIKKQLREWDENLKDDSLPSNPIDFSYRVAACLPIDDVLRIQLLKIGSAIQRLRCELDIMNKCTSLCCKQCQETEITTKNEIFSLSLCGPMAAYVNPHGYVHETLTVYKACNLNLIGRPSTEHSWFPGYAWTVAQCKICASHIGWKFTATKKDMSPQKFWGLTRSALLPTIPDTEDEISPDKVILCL
T1 sequence (Q16531 whole entry partner): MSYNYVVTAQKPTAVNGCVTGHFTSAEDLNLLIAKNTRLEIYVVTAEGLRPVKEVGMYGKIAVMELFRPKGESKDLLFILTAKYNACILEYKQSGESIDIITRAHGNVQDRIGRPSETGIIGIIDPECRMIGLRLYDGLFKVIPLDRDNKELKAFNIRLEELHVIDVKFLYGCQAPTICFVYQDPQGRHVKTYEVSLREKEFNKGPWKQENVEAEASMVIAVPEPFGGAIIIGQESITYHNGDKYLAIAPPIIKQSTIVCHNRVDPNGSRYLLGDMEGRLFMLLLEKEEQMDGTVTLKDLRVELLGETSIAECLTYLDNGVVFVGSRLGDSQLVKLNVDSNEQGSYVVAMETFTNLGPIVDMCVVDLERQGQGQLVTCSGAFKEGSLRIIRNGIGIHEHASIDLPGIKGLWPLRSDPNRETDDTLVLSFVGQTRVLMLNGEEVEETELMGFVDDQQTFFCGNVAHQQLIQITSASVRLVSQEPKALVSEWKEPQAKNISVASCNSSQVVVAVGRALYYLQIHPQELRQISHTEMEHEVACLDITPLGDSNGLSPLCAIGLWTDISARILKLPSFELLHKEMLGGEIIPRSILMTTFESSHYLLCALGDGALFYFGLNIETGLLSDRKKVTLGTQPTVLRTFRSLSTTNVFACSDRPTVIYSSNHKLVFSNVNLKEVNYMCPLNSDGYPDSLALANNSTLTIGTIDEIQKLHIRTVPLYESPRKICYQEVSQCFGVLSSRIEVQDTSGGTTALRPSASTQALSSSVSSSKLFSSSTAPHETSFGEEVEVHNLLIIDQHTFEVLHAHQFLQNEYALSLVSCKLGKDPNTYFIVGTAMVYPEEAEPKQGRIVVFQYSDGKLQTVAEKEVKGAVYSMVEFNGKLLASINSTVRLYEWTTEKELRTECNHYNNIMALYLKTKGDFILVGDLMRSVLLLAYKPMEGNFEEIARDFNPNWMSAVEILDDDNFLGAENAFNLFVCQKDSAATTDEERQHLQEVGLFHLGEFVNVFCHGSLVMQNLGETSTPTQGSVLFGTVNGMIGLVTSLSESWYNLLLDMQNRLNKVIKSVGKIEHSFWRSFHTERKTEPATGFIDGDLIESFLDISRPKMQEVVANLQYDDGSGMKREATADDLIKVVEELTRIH
Method: Cells were lysed using RIPA Buffer (Pierce) and a Western Blot analysis was performed using anti-GSPT1 and anti-β-actin antibodies. FIG. 11B is a graph showing the expression levels of GSPT1 protein in Molm-13 (AML) cells. Protein expression levels were measured using the LiCor Odyssey instrumentation and methods.
Western Blot Protocol: Cell lines were grown in RPMI 1640 supplemented with streptomycin, penicillin and 10% fetal bovine serum.
Cells were cultured at approximately 10^6 cells per mL and incubated in DMSO or each of the indicated compounds for 6-8 h. Whole cell extracts were prepared using RIPA buffer according to manufacturer's protocol (Pierce). Briefly, 2×10^6 cells were washed once in PBS, the cell pellets were resuspended in RIPA buffer and allowed to incubate for 15 minutes on ice. Cells debris was removed by centrifugation and the cleared whole cell lysates were transferred to new tubes for further analysis.
For Western blot analysis, whole cell protein extracts were separated on 4-12% SDS-polyacrylamide gels, transferred to nitrocellulose, and probed with the indicated primary antibodies. Membranes were subsequently washed and probed with the appropriate IRDye secondary antibodies (LI-COR). The signal was detected using the Odyssey Imaging System (LI-COR).
GSPT1: Rabbit anti-GSPT1 was obtained from Abcam, ab126090 (Cambridge, Eng.)

[5] = tested on: H1048 cells; test: H1048 cell viability (CellTiter-Glo); type: cell-based; settings: Homo sapiens, NCI-H1048, 72 h, H1048, 3 days, DMSO = 100.00; for viability at 1 µM: 1 μM compound concentration; for viability at 10 µM: 10 μM compound concentration
Method: FIG. 10A is a graph showing antiproliferative activity in H1048 (SCLC) cells. FIG. 10B is a graph showing antiproliferative activity in Molm-13 (AML) cells. In FIGS. 10A and 10B, the cells were incubated for 72 hrs with Compound 9 at the indicated concentrations or DMSO. Compound activity was measured based on the signal from remaining viable cells.
(§1) Molm-13 cells were cultivated in RPMI-1640 (10% FBS/1% pen-strep) and were plated in white walled 96-well plates at 20,000 cells/well. H1048 cells were cultured in DMEM:F12 media supplemented with 5% fetal bovine serum, insulin, transferrin, sodium selenite, hydrocortisone, β-estradiol, penicillin and streptomycin, and were plated in white walled 96-well plates at 20,000 cells/well. MDA-MB-231 cells were cultured in DMEM media supplemented with 10% fetal bovine serum, penicillin and streptomycin, and were plated in white walled 96-well plates at 10,000 cells/well. Cells were treated with compound or DMSO (0.1%, control) and the cultures were incubated for 3 days at 37° C. and 5% CO2. Following the incubation period, 100 μL of CellTiterGlow (CTG) reagent (CellTiter-Glo® Luminescent Cell Viability Assay, Promega (Madison, Wis.)) was added to each well. Following a 10 min incubation with shaking, luminescence was measured using a Victor Wallac Luminometer.

[6] = tested on: IL-1β; test: IL-1β expression in LPS stimulated PBMCs (Meso Scale); type: cell-based, human; settings: Homo sapiens, PBMC; for inhibition at 1 µM: compound concentration 1 μM; for inhibition at 0.1 µM: compound concentration 0.1 μM
In short: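 Human PBMCs (200,000 cells/well in RPMI-1640/10% FBS) were pretreated with compound for 1 h, then stimulated with 100 ng/mL LPS for 18-24 h. IL-1β in supernatant was measured by Meso Scale assay. Activity is expressed as percentage of LPS-induced level, with DMSO-treated wells as negative control.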

[7] = tested on: MDA-MB-231 cells; test: MDA-MB-231 cell viability (CellTiter-Glo); type: cell-based; settings: Homo sapiens, 72 h, 3 days, DMSO = 100.00; for viability at 1 µM: 1 μM compound concentration; for viability at 10 µM: 10 μM compound concentration
Method: as §1

[8] = tested on: IL-2; test: anti-CD3-induced IL-2 secretion in PBMCs; type: cell-based; settings: Homo sapiens, PBMC, anti-CD3 stimulated PBMCs, 24 h, DMSO = 1.0, read-out: Fold Change IL-2; for fold induction at 1 µM: compound concentration 1 μM; for fold induction at 0.1 µM: compound concentration 0.1 μM
Method: FIGS. 4 and 9D are graphs showing anti-CD3-induced IL-2 secretion in PBMCs. 1 ug/mL anti-CD3 (OKT-3) antibody in PBS were coated onto 96-well plates overnight at 4° C. Approximately 550,000 PBMCs were added to each well, followed by addition of DMSO only, Compound 1-8 at 10 μM (FIG. 4) or Compound 9 at 0.1 μM or 1 μM (FIG. 9D), or 10 μM lenalidomide (rev). Induction was measured after 24 h as fold difference from the DMSO stimulated control.
For the IL-2 analysis, 96 well plates were precoated with 1 ug/mL anti-human CD3 antibody (OKT3, eBioscience Inc.). After washing with PBS, compounds were added to the wells (50 μL/well) followed by PBMCs diluted at 3-4 million cells/mL (150 μL/well). Plates were incubated for 24 h and the supernatants collected for Mesoscale IL-2 analysis.
Compound activity was measured as fold difference from the DMSO control. IL-1-beta activity is shown in FIG. 1; IL-6 activity is shown in FIG. 2; TNF-α activity is shown in FIG. 3; and IL-2 activity is shown in FIG. 4.

Compound | remaining activity at 0.1 µM [4] [%] | remaining activity at 1 µM [4] [%] | inhibition at 1 µM [1] [%] | inhibition at 1 µM [2] [%] | cytotoxicity at 1 µM ([3]; compound concentration 1 μM) [%] | viability at 1 µM [5] [%] | viability at 10 µM [5] [%] | inhibition at 1 µM [6] [%] | viability at 1 µM [7] [%] | viability at 10 µM [7] [%] | fold induction at 1 µM [8] | cytotoxicity at 10 µM [3] [%] | inhibition at 0.1 µM [1] [%] | inhibition at 0.1 µM [2] [%] | cytotoxicity at 0.5 µM ([3]; compound concentration 0.5 μM) [%] | inhibition at 0.1 µM [6] [%] | fold induction at 0.1 µM [8] | cytotoxicity at 0.003 µM ([3]; compound concentration 0.003 μM) [%]
Cc1ccc(NC(=O)NCc2scc3c2CN([C@H]2CCCC(=O)NC2=O)C3=O)cc1Cl [Compound 30, (S)-1-(3-Chloro-4-methylphenyl)-3-((5-(2,7-dioxoazepan-3-yl)-4-oxo-5,6-dihydro-4H-thieno[3,4-c]pyrrol-1-yl)methyl)urea] | 42.7 | 5.28 | 98 | 84 | 50 | 8.55 | 8.34 | 81 | 52.9 | 26.3 | 0.4 |  |  |  |  |  |  | 
Cc1ccc(CC(=O)NCc2scc3c2CN([C@H]2CCCC(=O)NC2=O)C3=O)cc1Cl [Compound 31, (S)-2-(3-Chloro-4-methylphenyl)-N-((5-(2,7-dioxoazepan-3-yl)-4-oxo-5,6-dihydro-4H-thieno[3,4-c]pyrrol-1-yl)methyl)acetamide] | 131 | 108 | 40 | 80 |  | 84.3 | 26.8 | 76 | 103 | 107 | 1.7 | 12 |  |  |  |  |  | 
O=C1CCC[C@H](N2Cc3c(csc3CNC(=O)Nc3ccc(C(F)(F)F)c(Cl)c3)C2=O)C(=O)N1 [Compound 32, (S)-1-(3-Chloro-4-(trifluoromethyl)phenyl)-3-((5-(2,7-dioxoazepan-3-yl)-4-oxo-5,6-dihydro-4H-thieno[3,4-c]pyrrol-1-yl)methyl)urea] | 61.7 | 29.3 |  |  |  | 10.6 | 10.8 |  | 91.2 | 44.3 |  |  | 65 | 62 | 25 | 67 | 0.8 | 
Cc1ccc(CNC(=O)NCc2scc3c2CN(C2CCC(=O)NC2=O)C3=O)cc1Cl (stereo not shown) [Compound 33, 1-(3-Chloro-4-methylbenzyl)-3-((5-(2,6-dioxopiperidin-3-yl)-4-oxo-5,6-dihydro-4H-thieno[3,4-c]pyrrol-1-yl)methyl)urea] | 5.9 | 5.5 |  |  |  | 8.76 | 8.21 |  | 21.7 | 19.8 |  |  | 99 | 95 |  | 95 | 0.3 | 50

Now from value to compound, other results behind:

remaining activity at 0.1 µM [4] [%] | remaining activity at 1 µM [4] [%] | Compound | inhibition at 1 µM [1] [%] | inhibition at 1 µM [2] [%] | cytotoxicity at 1 µM ([3]; compound concentration 1 μM) [%] | viability at 1 µM [5] [%] | viability at 10 µM [5] [%] | inhibition at 1 µM [6] [%] | viability at 1 µM [7] [%] | viability at 10 µM [7] [%] | fold induction at 1 µM [8] | cytotoxicity at 10 µM [3] [%] | inhibition at 0.1 µM [1] [%] | inhibition at 0.1 µM [2] [%] | cytotoxicity at 0.5 µM ([3]; compound concentration 0.5 μM) [%] | inhibition at 0.1 µM [6] [%] | fold induction at 0.1 µM [8] | cytotoxicity at 0.003 µM ([3]; compound concentration 0.003 μM) [%]
84.9 | 37.5 | Cc1ccc(CNC(=O)NCc2scc3c2CN([C@H]2CCCC(=O)NC2=O)C3=O)cc1Cl [Compound 34, (S)-1-(3-Chloro-4-methylbenzyl)-3-((5-(2,7-dioxoazepan-3-yl)-4-oxo-5,6-dihydro-4H-thieno[3,4-c]pyrrol-1-yl)methyl)urea] | 39 | 69 |  | 12.9 | 8.34 | 70 | 102 | 44.4 | 1.6 | 99 |  |  |  |  |  | 
112 | 44.5 | Cc1ccc(NC(=O)NCc2cc3c(s2)C(=O)N([C@H]2CCCC(=O)NC2=O)C3)cc1Cl [Compound 35, (S)-1-(3-Chloro-4-methylphenyl)-3-((5-(2,7-dioxoazepan-3-yl)-6-oxo-5,6-dihydro-4H-thieno[2,3-c]pyrrol-2-yl)methyl)urea] | 16 | 39 |  | 15.5 | 12.4 | 44 | 99 | 64.8 | 1.4 | 93 |  |  |  |  |  | 
92.9 | 32.6 | Cc1cc(C)c(NC(=O)NCc2scc3c2CN([C@H]2CCCC(=O)NC2=O)C3=O)cc1Cl [Compound 36, (S)-1-(5-Chloro-2,4-dimethylphenyl)-3-((5-(2,7-dioxoazepan-3-yl)-4-oxo-5,6-dihydro-4H-thieno[3,4-c]pyrrol-1-yl)methyl)urea] | 38 | 33 |  | 10.6 | 7.51 | 40 | 101 | 53.4 | 0.8 | 100 |  |  |  |  |  | 
124 | 154 | Cc1ccc(NC(=O)NCc2scc3c2CN([C@H]2CCCC(=O)NC2=O)C3=O)cn1 [Compound 37, (S)-1-((5-(2,7-Dioxoazepan-3-yl)-4-oxo-5,6-dihydro-4H-thieno[3,4-c]pyrrol-1-yl)methyl)-3-(6-methylpyridin-3-yl)urea] | 3 | 6 |  | 55 | 10.5 | 4 | 106 | 97.7 | 1.1 | 51 |  |  |  |  |  | 
